Data: patent US20230069804A1, “METHODS AND COMPOSITIONS FOR MODULATING SPLICING” (SkyHawk Therapeutics, Inc., priority 2019, published 2023)
Where “and” joins values, the source holds several entries; their conditions need not be identical. Identical values can stand only once. Like-named read-outs stand apart in the source and are kept apart here.

Assays:
[1] = test system: MDR1-MDCK cell monolayers; experiment: MDCK-MDR1 permeability assay (BBB penetration potential); type: in vitro ADME; conditions: 5 μM, 120 minutes; for MDCK-MDR1: % Recov A-B / MDCK-MDR1: % Recov B-A: pH 7.4; for MDCK MDRP1 Efflux Ratio: Papp (B-to-A)/Papp (A-to-B), separated enantiomers, told apart by chiral retention time
Experimental: (§1) Each determination is performed in duplicate. […] Analytical conditions are outlined below.
(§2) Papp=(dCr/dt)×Vr/(A×CA) (1)

MDR1 = experiment: as above; type: in vitro ADME; conditions: dog; for Papp A→B at 120 min, 5 μM / Papp B→A at 120 min, 5 μM: MDCK-MDR1, pH 7.4
Experimental: as §1, §2

[2] = MDCK-MDR1, pH 7.4, Papp (B-to-A)/Papp (A-to-B), read-out: MDCK-MDR1: Efflux
[3] = MDCK-MDR1, pH 7.4, Papp (B-to-A)/Papp (A-to-B), 5 μM, 120 minutes, separated enantiomers, told apart by chiral retention time, read-out: MDCK MDRP1 Efflux Ratio

| SMILES | MDCK-MDR1: % Recov A-B [1] [%] | MDCK-MDR1: % Recov B-A [1] [%] | efflux ratio at 120 min, 5 μM (MDR1; [2]) | Papp A→B at 120 min, 5 μM (MDR1; 5 μM, 120 minutes) [×10⁻⁶ cm/s] | Papp B→A at 120 min, 5 μM (MDR1; 5 μM, 120 minutes) [×10⁻⁶ cm/s] | MDCK MDRP1 Efflux Ratio [1] | efflux ratio at 120 min, 5 μM (MDR1; [3]) |
| --- | --- | --- | --- | --- | --- | --- | --- |
| COc1cc(-c2ccc(-c3nnc(N(C)[C@H]4C[C@@H]5CC[C@@H](N5)[C@H]4F)s3)c(O)c2)ccn1 (single isomer, unassigned) [Compound E-11B] | 17 | 60 | 2 | 3.71 | 6.07 |  |  |
| CN(c1nnc(-c2cc(F)c(-c3cn[nH]c3)cc2O)s1)[C@H]1C[C@@H]2CC[C@H]([C@H]1F)N2C (racemic) [24A/24B, 4-fluoro-2-(5-{[(1S,2S,3R,5R)-2-fluoro-8-methyl-8-azabicyclo[3.2.1]octan-3-yl](methyl)amino}-1,3,4-thiadiazol-2-yl)-5-(1H-pyrazol-4-yl)phenol and 4-fluoro-2-(5-{[(1R,2R,3S,5S)-2-fluoro-8-methyl-8-azabicyclo[3.2.1]octan-3-yl](methyl)amino}-1,3,4-thiadiazol-2-yl)-5-(1H-pyrazol-4-yl)phenol] |  |  |  |  |  | 7 | 6 |
| COc1cc(-c2ccc(-c3nnc(N(C)[C@@H]4C[C@H]5CC[C@H](N5)[C@@H]4F)s3)c(O)c2)ccn1 (single isomer, unassigned) [Compound E-11A] | 20 | 56 | 2 | 4.19 | 9.76 |  |  |
| COc1cc(-c2ccc(-c3nnc(N(C)[C@@H]4C[C@H]5CC[C@H](N5)[C@@H]4F)s3)c(O)c2)ccn1 (racemic) [11A/11B, 2-(5-{[(1S,2S,3R)-2-fluoro-8-azabicyclo[3.2.1]octan-3-yl](methyl)amino}-1,3,4-thiadiazol-2-yl)-5-(2-methoxypyridin-4-yl)phenol and 2-(5-{[(2R,3S,5S)-2-fluoro-8-azabicyclo[3.2.1]octan-3-yl](methyl)amino}-1,3,4-thiadiazol-2-yl)-5-(2-methoxypyridin-4-yl)phenol] |  |  |  |  |  |  | 2 |
| CN(c1nnc(-c2ccc(-c3cn[nH]c3)cc2O)s1)[C@H]1C[C@@H]2CC[C@@H](N2)[C@H]1F (single isomer, unassigned) [Compound E-7A] | 99 | 102 | 12 | 5.22 | 60.6 |  |  |
| CN(c1nnc(-c2cc(F)c(-c3cnn(C)c3)cc2O)s1)[C@H]1C[C@@H]2CC[C@@H](N2)[C@H]1F (racemic) [9A/9B, 4-fluoro-2-(5-{[(1S,2S,3R,5R)-2-fluoro-8-azabicyclo[3.2.1]octan-3-yl](methyl)amino}-1,3,4-thiadiazol-2-yl)-5-(1-methyl-1H-pyrazol-4-yl)phenol and 4-fluoro-2-(5-{[(1R,2R,3S,5S)-2-fluoro-8-azabicyclo[3.2.1]octan-3-yl](methyl)amino}-1,3,4-thiadiazol-2-yl)-5-(1-methyl-1H-pyrazol-4-yl)phenol] |  |  |  |  |  | 6 | 5 |
| CN(c1nnc(-c2ccc(-c3cnn(C)c3)cc2O)s1)[C@H]1C[C@@H]2CC[C@@H](N2)[C@H]1F (racemic) [3A/3B, 2-(5-(((1R,2R,3S,5S)-2-fluoro-8-azabicyclo[3.2.1]octan-3-yl)(methyl)amino)-1,3,4-thiadiazol-2-yl)-5-(1-methyl-1H-pyrazol-4-yl)phenol] |  |  |  |  |  | 5.3 | 4.3 |
| CN(c1nnc(-c2cc(F)c(-c3cn[nH]c3)cc2O)s1)[C@@H]1C[C@H]2CC[C@@H]([C@@H]1F)N2C (single isomer, unassigned) [Compound E-24B] | 59 | 82 | 7 | 4.16 | 29.4 |  |  |
| CN(c1nnc(-c2ccc(-c3cc(=O)n(C)cn3)cc2O)s1)[C@H]1C[C@@H]2CC[C@@H](N2)[C@H]1F (single isomer, unassigned) [Compound E-8B] | 67 | 42 | 31 | 0.66 | 20.6 |  |  |
| CN(c1nnc(-c2ccc(-c3cnn(C)c3)cc2O)s1)[C@H]1C[C@@H]2CC[C@H]([C@H]1F)N2C (racemic) [25A/25B, 2-(5-{[(1S,2S,3R,5R)-2-fluoro-8-methyl-8-azabicyclo[3.2.1]octan-3-yl](methyl)amino}-1,3,4-thiadiazol-2-yl)-5-(1-methyl-1H-pyrazol-4-yl)phenol and 2-(5-{[(1R,2R,3S,5S)-2-fluoro-8-methyl-8-azabicyclo[3.2.1]octan-3-yl](methyl)amino}-1,3,4-thiadiazol-2-yl)-5-(1-methyl-1H-pyrazol-4-yl)phenol] |  |  |  |  |  | 3 and 4 |  |
| COc1cc(-c2ccc(-c3nnc(N(C4CC4)[C@@H]4C[C@H]5CC[C@H](N5)[C@@H]4F)s3)c(O)c2)cc(F)n1 (racemic) [2A/2B, 2-(5-(cyclopropyl((1S,2S,3R,5R)-2-fluoro-8-azabicyclo[3.2.1]octan-3-yl)amino)-1,3,4-thiadiazol-2-yl)-5-(2-fluoro-6-methoxypyridin-4-yl)phenol and 2-(5-(cyclopropyl((1R,2R,3S,5S)-2-fluoro-8-azabicyclo[3.2.1]octan-3-yl)amino)-1,3,4-thiadiazol-2-yl)-5-(2-fluoro-6-methoxypyridin-4-yl)phenol] |  |  |  |  |  |  | 5 |
| CN(c1nnc(-c2ccc(-c3cnn(C)c3)cc2O)s1)[C@H]1C[C@@H]2CC[C@H]([C@H]1F)N2C (racemic) [21A/21B, 2-(5-{[(1S,2S,3R,5R)-2-fluoro-8-methyl-8-azabicyclo[3.2.1]octan-3-yl](methyl)amino}-1,3,4-thiadiazol-2-yl)-5-(1-methyl-1H-pyrazol-4-yl)phenol and 2-(5-{[(1R,2R,3S,5S)-2-fluoro-8-methyl-8-azabicyclo[3.2.1]octan-3-yl](methyl)amino}-1,3,4-thiadiazol-2-yl)-5-(1-methyl-1H-pyrazol-4-yl)phenol] |  |  |  |  |  | 4 | 3 |
| CN(c1nnc(-c2ccc(-c3ccn(CF)c(=O)c3)cc2O)s1)[C@@H]1C[C@H]2CC[C@H](N2)[C@@H]1F (racemic) [15A/15B, 4-[4-(5-{[(1S,2S,3R)-2-fluoro-8-azabicyclo[3.2.1]octan-3-yl](methyl)amino}-1,3,4-thiadiazol-2-yl)-3-hydroxyphenyl]-1-(fluoromethyl)-1,2-dihydropyridin-2-one and 4-[4-(5-{[(2R,3S,5S)-2-fluoro-8-azabicyclo[3.2.1]octan-3-yl](methyl)amino}-1,3,4-thiadiazol-2-yl)-3-hydroxyphenyl]-1-(fluoromethyl)-1,2-dihydropyridin-2-one] |  |  |  |  |  | 66 | 40 |
| CN(c1nnc(-c2ccc(-c3cn[nH]c3)cc2O)s1)[C@@H]1C[C@H]2CC[C@@H]([C@@H]1F)N2C (single isomer, unassigned) [Compound E-23B] | 83 | 89 | 7 | 5.69 | 39 |  |  |
| COc1cc(-c2ccc(-c3nnc(N(C)[C@@H]4C[C@H]5CC[C@H](N5)[C@@H]4F)s3)c(O)c2)ncn1 (racemic) [5A/5B, 2-(5-{[(1S,2S,3R)-2-fluoro-8-azabicyclo[3.2.1]octan-3-yl](methyl)amino}-1,3,4-thiadiazol-2-yl)-5-(6-methoxypyrimidin-4-yl)phenol and 2-(5-{[(2R,3S,5S)-2-fluoro-8-azabicyclo[3.2.1]octan-3-yl](methyl)amino}-1,3,4-thiadiazol-2-yl)-5-(6-methoxypyrimidin-4-yl)phenol] |  |  |  |  |  |  | 2 |
| COc1cc(-c2ccc(-c3nnc(N(C)[C@H]4C[C@@H]5CC[C@@H](N5)[C@H]4F)s3)c(O)c2)ncn1 (single isomer, unassigned) [Compound E-5B] | 37 | 58 | 2 | 6.59 | 9.86 |  |  |
| CN(c1nnc(-c2cc(F)c(-c3cn[nH]c3)cc2O)s1)[C@H]1C[C@@H]2CC[C@H]([C@H]1F)N2C (single isomer, unassigned) [Compound E-24A] | 57 | 74 | 6 | 5.07 | 30.8 |  |  |
| CN(c1nnc(-c2ccc(-c3cnn(C)c3)cc2O)s1)[C@H]1C[C@@H]2CC[C@H]([C@H]1F)N2C (single isomer, unassigned) [Compound E-25A] | 70 | 82 | 4 | 8.7 | 32 |  |  |
| CN(c1nnc(-c2ccc(-c3cn[nH]c3)cc2O)s1)[C@H]1C[C@@H]2CC[C@@H](N2)[C@H]1F (racemic) [7A/7B, 2-(5-{[(1S,2S,3R,5R)-2-fluoro-8-azabicyclo[3.2.1]octan-3-yl](methyl)amino}-1,3,4-thiadiazol-2-yl)-5-(1H-pyrazol-4-yl)phenol and 2-(5-{[(1R,2R,3S,5S)-2-fluoro-8-azabicyclo[3.2.1]octan-3-yl](methyl)amino}-1,3,4-thiadiazol-2-yl)-5-(1H-pyrazol-4-yl)phenol] |  |  |  |  |  |  | 12 |
| CN(c1nnc(-c2ccc(-c3cnn(C)c3)cc2O)s1)[C@@H]1C[C@H]2CC[C@@H]([C@@H]1F)N2C (single isomer, unassigned) [Compound E-25B] | 67 | 83 | 3 | 7.16 | 22.7 |  |  |
| CN(c1nnc(-c2ccc(-c3ccn(C)c(=O)c3)cc2O)s1)[C@@H]1C[C@H]2CC[C@H](N2)[C@@H]1F (single isomer, unassigned) [Compound E-4A] | 93 | 101 | 54 | 1.03 | 55.9 |  |  |
